The values below come from patent publication US20250360057A1, “ENHANCING DENTIN BONDING DURABILITY USING QUATERNARY PYRIDINIUM SALTS” (ADA Science and Research Institute LLC, priority 2022, published 2025).

Common to all, as to type: physicochemical
The nature of data set [1]: Degree of (vinyl) conversion (DC) of cured dental adhesive/resin by FT-IR (ATR). The following applies: for change of Degree of Conversion (in words) / decrease of Degree of Conversion / increase of Degree of Conversion: versus resin without additive; for change of Degree of Conversion (in words) / decrease of Degree of Conversion: Bis-GMA/TEGDMA resin; for Degree of Conversion: resin 70 wt % Bis-GMA / 30 wt % TEGDMA with CQ/4E; for increase of Degree of Conversion: 70 wt % Bis-GMA / 30 wt % TEGDMA, CQ/4E; for Degree of Conversion (%): approx 0.25 wt % additive; for effect on DC (in words): both adhesives (SB and B6H4).

Data set [2] concerns the target T1, pseudocholine esterase from equine serum (PCE) (Equus caballus, UniProt P81908).
T1 construct: pseudocholine esterase from equine serum; purchased Sigma C7512; host or cells: equine serum
In words: Biostability: AFM-based step height change (ΔH) under enzymatic challenge.

Data set [3] deals with T1, pseudocholine esterase from equine serum (PCE). Described as above. The source says: Various embodiments of the present application can be better understood by reference to the following Examples which are offered by way of illustration. The scope of the present application is not limited to the Examples given herein. The enzymatic challenge measurement method described herein is described in Wang X, Song S, Chen L, Stafford CM, Sun J, Acta Biomater., 2018, 74, 326, and Yamauchi S, Wang X, Egusa H, Sun J. “High-performance dental adhesives containing an ether-based monomer” Journal of Dental Research, 2020, 99, 189, which are both incorporated by reference herein in their entireties.
Biostability of the dental materials such as resins and adhesives is of critical importance to their durability. These materials may break down in the oral environment, which may be due to enzymatic and/or bacterial challenges, which can result in failure of the restoration and secondary caries. The stability against enzymatic challenges of dental materials including adhesives and resins, with and without additives, was evaluated using an atomic force microscopy (AFM)-based method, described by Wang et al., in “Short-time dental resin biostability and kinetics of enzymatic degradation”, Acta Biomaterialia, Volume 74, 1 Jul. 2018, Pages 326-333, incorporated herein in its entirety. Briefly, this method allows evaluation of materials by assessing the step height (H) and the changes in the step height (ΔH), that are caused by enzymatic exposure. The ΔH values are caused as material exposed to salivary enzymes or the like is removed due to degradation of the exposed material.
The stability of SB was compared to the same adhesive incorporating Azo-QPS-C16 as an additive at approximately 0.25 wt %. Samples were prepared according to the method described by Wang, and were exposed to either pseudocholine esterase from equine serum (PCE, Product No. C7512, Sigma, Saint Louis, MO, USA) were reconstituted in saline solution containing 40 mM magnesium chloride and 99 mM of sodium chloride following vender's instruction, or a control solution without PCE for various times up to 72 hours. […] For the SB sample exposed to PCE, the ΔH value increased to about 175 nm. In comparison, the addition of approximately 0.25 wt % Azo-QPS-C16 reduced the ΔH values after 72 hours to about 50 nm and about 60 nm for the control and PCE-exposed samples, respectively, thus showing inclusion of Azo-QPC-C16 in the adhesive improved the stability dramatically.
The source holds these as a separate data set.

Data set [4] is described as follows: Glass transition temperature (Tg) / tan δ peak by dynamic mechanical analysis (DMA). As to the method: The degree of conversion (DC) and glass transition temperature (Tg) of adhesives and resins with or without the additives (such as Azo-QPS-C16) were measured by Fourier transform infrared (FTIR) spectrometer and dynamic mechanical analyzer (DMA), respectively. The stability against enzymatic challenges of four adhesives (and resins) was evaluated using an atomic force microscopy (AFM)-based method. The adhesives' bonding strength and bonding durability are determined and compared based on shear bond strength (SBS), micro-tensile bond strength (pTBS), and bonding durability under the challenges of thermal cycling.
The glass transition temperature (Tg) of adhesives with or without additive were measured by dynamic mechanical analysis (DMA).

Where [5] appears, read: B6H4, approximately 0.25 wt % additive.

T1 sequence (P81908 whole entry): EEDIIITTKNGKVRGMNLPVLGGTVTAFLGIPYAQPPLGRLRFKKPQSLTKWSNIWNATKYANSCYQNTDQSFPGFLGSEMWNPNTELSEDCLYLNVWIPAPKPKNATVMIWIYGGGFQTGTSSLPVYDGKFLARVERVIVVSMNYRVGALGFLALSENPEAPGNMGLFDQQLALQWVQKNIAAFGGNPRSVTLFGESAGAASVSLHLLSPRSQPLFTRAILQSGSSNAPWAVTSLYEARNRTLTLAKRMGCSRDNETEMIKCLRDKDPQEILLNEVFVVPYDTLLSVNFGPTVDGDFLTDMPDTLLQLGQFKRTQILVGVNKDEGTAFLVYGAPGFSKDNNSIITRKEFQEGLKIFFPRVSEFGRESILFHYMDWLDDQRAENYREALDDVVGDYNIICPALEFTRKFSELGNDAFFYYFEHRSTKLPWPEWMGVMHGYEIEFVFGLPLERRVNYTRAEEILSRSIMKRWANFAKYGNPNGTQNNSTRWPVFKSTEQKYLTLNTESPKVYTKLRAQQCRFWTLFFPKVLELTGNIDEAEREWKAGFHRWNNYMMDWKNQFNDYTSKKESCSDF

`c1cc(CCc2ccncc2)ccn1` [reference compound]: the “change of Degree of Conversion (in words)” value (“change” for short) in data set [1] is “No change”.
Turning to `Oc1ccc(/N=N/c2ccncc2)cc1` [Azo-Py-OH, reference compound], in data set [1] (0.5 wt % additive), the “Degree of Conversion” value was determined as 68.4%. Moreover, the “decrease of Degree of Conversion” value in data set [1] was 1.8%.
On to `C=C(C)C(=O)Oc1ccc(/N=N/c2ccncc2)cc1` [Azo-Py-MA, reference compound], for which, in data set [1] (0.5 wt % additive), the “Degree of Conversion” value amounted to 70.2%. Besides, in data set [1], the “change” value was “no change”.
For `C=C(C)C(=O)OCCCCCC[n+]1ccc(/N=N/c2ccc(OC(=O)C(C)C)cc2)cc1.[Br-]` [MA-C6-Azo-Py-iBu], the ΔH was approximately 65 nm in data set [2] (B6H4, approximately 0.25 wt % additive, PCE (FIG. 6)); “approximately 50 nm” in data set [2] (B6H4, approximately 0.25 wt % additive, control (FIG. 6)); approximately 70 nm in data set [3] (Scotchbond (SB), PCE (FIG. 7)); “approximately 50 nm” in data set [3] (Scotchbond (SB), control (FIG. 7)). In addition, in data set [1] (0.5 wt % additive), the “Degree of Conversion” value was found to be 74.9%. Also, the “increase of Degree of Conversion” value in data set [1] (0.5 wt % additive) worked out at 4.7%.
Regarding `c1cc(N=Nc2ccncc2)ccn1` [reference compound], the “change” value in data set [1] is recorded as “No change”.
For `C=C(C)C(=O)Oc1ccc(/N=N/c2cc[n+](CC)cc2)cc1.[Br-]` [Azo-QPS-C2-MA], in data set [1] (0.5 wt % additive), the “Degree of Conversion” value was 72.3% and the “increase of Degree of Conversion” value was determined as 2.1%.
The matching figures for `CC(C)C(=O)Oc1ccc(/N=N/c2cc[n+](CCCCCBr)cc2)cc1.[Br-]` [Br-C6-Azo-Py-iBu]: 75.1% and 4.9%.
In the case of `C=C(C)C(=O)Oc1ccc(/N=N/c2cc[n+](CCCCCCCCCCCCCCCC)cc2)cc1.[Br-]` [Azo-QPS-C16, (E)-1-hexadecyl-4-((4-(methacryloyloxy)phenyl)diazenyl)-pyridinium bromide], the “glass transition temperature (Tg)” value in data set [4] (setting [5]) is reported as “increases”. The “tan δ peak” value in data set [4] (setting [5]) is listed as “narrowed”; in data set [4] (SB, approximately 0.25 wt % additive), “narrowed”. Further, the ΔH result was “about 50 nm” in data set [2] (B6H4 with CQ/4E, approximately 0.25 wt % additive, control, after 72 hours); “about 70 nm” in data set [2] (B6H4 with CQ/4E, approximately 0.25 wt % additive, exposed to PCE, after 72 hours); “about 60 nm” in data set [3] (SB, approximately 0.25 wt % additive, PCE-exposed, after 72 hours); “about 50 nm” in data set [3] (SB, approximately 0.25 wt % additive, control solution without PCE, after 72 hours). In addition, the “effect on ΔH values (in words)” value in data set [2] (adhesives PBNT, SBP, SUP, EBSE and XIV, approximately 0.25 wt % additive versus no additive (FIGS. 8-12)) is on record as “decreased the ΔH values”. The “DC (%)” value amounted to 76.9 ± 0.7% in data set [1] (B6H4/CQ/4E, 0.1 wt % additive); 79.5 ± 0.8% in data set [1] (B6H4/CQ/4E, 0.25 wt % additive); 80.5 ± 1.2% in data set [1] (B6H4/CQ/4E, 0.5 wt % additive); 81.3 ± 1.4% in data set [1] (B6H4/CQ/4E, 1.0 wt % additive); 76.2 ± 1.5% in data set [1] (B6H4/CQ/4E, 1.25 wt % additive); 64.4 ± 2.2% in data set [1] (B6H4/CQ/4E, 1.5 wt % additive). In addition, the “DC (%)” value in data set [1] (B6H4/CQ/4E, 2.0 wt % additive) turned out to be 26.0 ± 2.6%; in data set [1] (Scotchbond Multi-Purpose (SB), 0.1 wt % additive), 76.1 ± 0.8%; in data set [1] (Scotchbond Multi-Purpose (SB), 0.25 wt % additive), 78.6 ± 0.9%; in data set [1] (Scotchbond Multi-Purpose (SB), 0.5 wt % additive), 79.2 ± 1.1%; in data set [1] (Scotchbond Multi-Purpose (SB), 1.0 wt % additive) it was 79.5 ± 1.4%; in data set [1] (Scotchbond Multi-Purpose (SB), 1.25 wt % additive) it was 75.5 ± 1.5%. In addition, the “DC (%)” value in data set [1] (Scotchbond Multi-Purpose (SB), 1.5 wt % additive) worked out at 55.0 ± 1.4%; in data set [1] (Scotchbond Multi-Purpose (SB), 2.0 wt % additive), 12.8 ± 3.1%. For the same compound, the “Degree of Conversion (%)” value worked out at 73.7 ± 0.6% in data set [1] (EBSE adhesive); 66.4 ± 0.7% in data set [1] (PBNT adhesive); 70.3 ± 0.5% in data set [1] (SBP adhesive); 72.5 ± 1.0% in data set [1] (SUP adhesive); 74.2 ± 1.1% in data set [1] (XIV adhesive). For the same compound, the “effect on DC (in words)” value in data set [1] (approximately 0.1 wt % additive) is recorded as “enhances the DC of both adhesives”; in data set [1] (more than approximately 1.25 wt % additive (about 1.5 or 2 wt %)), “significant DC decrease”. Further, the “Degree of Conversion” value in data set [1] (0.5 wt % additive) is given as 74.5%. Moreover, in data set [1] (0.5 wt % additive), the “increase of Degree of Conversion” value turned out to be 4.3%.
On to `CC(C)C(=O)Oc1ccc(/N=N/c2ccncc2)cc1` [Azo-Py-iBu, (E)-4-(pyridin-4-yldiazenyl)phenyl isobutyrate, reference compound], for which, in data set [1] (0.5 wt % additive), the “Degree of Conversion” value is recorded as 66.7%. Besides, the “decrease of Degree of Conversion” value in data set [1] came to 3.5%.
On to `c1ccc(/N=N/c2ccccc2)cc1` [reference compound], for which the “change” value in data set [1] is on record as “No change”.
For the compound `C=C(C)C(=O)OCCNC(=O)OCCCCCCCC[n+]1ccc(/N=N/c2ccc(OC(=O)C(C)C)cc2)cc1.[Br-]` [MA-CB13-Azo-QPS-iBu], in data set [1] (0.5 wt % additive), the “Degree of Conversion” value was 70.7% and the “increase of Degree of Conversion” value came out at 0.5%. Further, the “biostability of the adhesives (in words)” value in data set [3] (added to dental adhesives) is listed as “has not been demonstrated to improve the biostability”.
